# Experiments:
# HCT116 cells = assay: microarray differential expression, HCT116 cells treated with 500 nM Aza; format: cell-based, human; conditions: vs untreated, log base 2, negative = upregulation
# Protocol: HT29 cells were derived from a Grade II adenocarcinoma of the colon obtained from a person. HCT116 cells are a subpopulation of malignant cells isolated from a primary cell culture of a single human colonic carcinoma (Brattain et al. (1981) Cancer Res 41:1751-6). HMEC cells are a primary human epithelial cell line derived from the breast tissue of a normal donor. HT29 and HCT116 colorectal carcinoma cells (American Type Culture Collection, Manassas Va.) were cultured in McCoy's medium supplemented with 10% fetal bovine serum (Invitrogen) at 37° C. and 5% CO2. Treated cells were exposed to 500 nM 5-aza-2-deoxycytidine (Aza; Sigma-Aldrich) 24 hours after passage in complete culture medium. Control cultures were treated in parallel with phosphate buffered saline vehicle. After twenty-four hours, culture medium was replaced with drug-free medium. Control and Aza-treated cells were subcultured at equal densities at 1 and 5 days after the initial treatment, and proliferation was measured at the subsequent time point using a Coulter counter (Beckman Coulter, Fullerton Calif.). Cells were harvested 5 days after the initial treatment.
# Cells were harvested and lysed in 1 ml of TRIZOL reagent (5×10^6 cells/ml; Invitrogen). The lysates were vortexed thoroughly and incubated at room temperature for 2-3 minutes and extracted with 0.5 ml chloroform. The extract was mixed, incubated at room temperature for 5 minutes, and centrifuged at 16,000× g for 15 minutes at 4° C. The aqueous layer was collected, and an equal volume of isopropanol was added. Samples were mixed, incubated at room temperature for 10 minutes, and centrifuged at 16,000× g for 20 minutes at 4° C. The supernatant was removed, and the RNA pellet was washed with 1 ml of 70% ethanol, centrifuged at 16,000× g at 4° C., and resuspended in RNAse-free water. The concentration of the RNA was determined by measuring the optical density at 260 nm.
# Poly(A) RNA was prepared using an OLIGOTEX mRNA kit (Qiagen) with the following modifications: OLIGOTEX beads were washed in tubes instead of on spin columns, resuspended in elution buffer, and then loaded onto spin columns to recover mRNA. To obtain maximum yield, the mRNA was eluted twice.
# Each poly(A) RNA sample was reverse transcribed using MMLV reverse-transcriptase, 0.05 pg/μl oligo-d(T) primer (21mer), 1× first strand buffer, 0.03 units/ul RNAse inhibitor, 500 uM dAT?, 500 uM dGTP, 500 uM dTTP, 40 uM dCTP, and 40 uM either dCTP-Cy3 or dCTP-Cy5 (APB). The reverse transcription reaction was performed in a […] volume containing 200 ng poly(A) RNA using the GEMBRIGHT kit (Incyte Genomics). Specific control poly(A) RNAs (YCFRO6, YCFR45, YCFR67, YCFR85, YCFR43, YCFR22, YCFR23, YCFR25, YCFR44, YCFR26) were synthesized by in vitro transcription from non-coding yeast genomic DNA (W. Lei, unpublished). As quantitative controls, control mRNAs (YCFRO6, YCFR45, YCFR67, and YCFR85) at 0.002 ng, 0.02 ng, 0.2 ng, and 2 ng were diluted into reverse transcription reaction at ratios of 1:100,000, 1:10,000, 1:1000, 1:100 (w/w) to sample mRNA, respectively. To sample differential expression patterns, control mRNAs (YCFR43, YCFR22, YCFR23, YCFR25, YCFR44, YCFR26) were diluted into reverse transcription reaction at ratios of 1:3, 3:1, 1:10, 10:1, 1:25, 25:1 (w/w) to sample mRNA. Reactions were incubated at 37° C. for 2 hours, treated with […] of 0.5M sodium hydroxide, and incubated for 20 minutes at 85° C. to the stop the reaction and degrade the RNA.
# cDNAs were purified using two successive CHROMA SPIN 30 gel filtration spin columns (Clontech). Cy3- and Cy5-labeled reaction samples were combined as described below and ethanol precipitated using […] of 100% ethanol. The cDNAs were then dried to completion using a SpeedVAC system (Savant Instruments, Holbrook N.Y.) and resuspended in 14 μl 5× SSC, 0.2% SDS. […]
# HT-29 cells [1] = conditions: Aza treatment; inhibition parallels induction of IFN responsive genes; cited from earlier work
# HT-29 cells [2] = conditions: cultured HT-29 cells, microarray experiments and other methods; cited from earlier work
# MIN mouse = conditions: Aza treatment in combination with a genetic reduction in DNA methyltransferase I activity; cited from earlier work
structure (smiles),measurement,setting,value
"Nc1ncn([C@H]2C[C@H](O)[C@@H](CO)O2)c(=O)n1 [Aza, 5-aza-2-deoxycytidine]","differential expression, Clone ID 2416222, HCT116 t/Aza (5d)",HCT116 cells; SEQ ID NO:1 hypothetical protein,−1.72
same,"differential expression, Clone ID 4103545, HCT116 t/Aza (5d)",HCT116 cells; SEQ ID NO:2 Incyte Unique,−1.35
same,"differential expression, Clone ID 322569, HCT116 t/Aza (5d)",HCT116 cells; SEQ ID NO:3 interferon-inducible protein,−1.17
same,"differential expression, Clone ID 5322134, HCT116 t/Aza (5d)","HCT116 cells; SEQ ID NO:5 chromosome 6p21.3, HLA Class I region",−1.72
same,"differential expression, Clone ID 1698458, HCT116 t/Aza (5d)",HCT116 cells; SEQ ID NO:6 unnamed protein product,−1.32
same,"differential expression, Clone ID 1871523, HCT116 t/Aza (5d)",HCT116 cells; SEQ ID NO:7 KIAA1046 protein,−0.85
same,"differential expression, Clone ID 6024084, HCT116 t/Aza (5d)",HCT116 cells; SEQ ID NO:8 putative tumor antigen,−2.66
same,"differential expression, Clone ID 3810006, HCT116 t/Aza (5d)",HCT116 cells; SEQ ID NO:9 Incyte Unique,−0.85
same,"differential expression, Clone ID 4508879, HCT116 t/Aza (5d)",HCT116 cells; SEQ ID NO:10 Incyte Unique,−0.89
same,"differential expression, Clone ID 4225379, HCT116 t/Aza (5d)",HCT116 cells; SEQ ID NO:11 U 6 RNA,−0.89
same,"differential expression, Clone ID 3463713, HCT116 t/Aza (5d)",HCT116 cells; SEQ ID NO:12 cDNA clone ZD16H10,−1.46
same,"differential expression, Clone ID 2998017, HCT116 t/Aza (5d)","HCT116 cells; SEQ ID NO:13, 14 T-cell receptor gamma",−1.23
same,"differential expression, Clone ID 4318273, HCT116 t/Aza (5d)",HCT116 cells; SEQ ID NO:15 pTR5 repetitive sequence,−1.07
same,"differential expression, Clone ID 1649414, HCT116 t/Aza (5d)",HCT116 cells; SEQ ID NO:16 Hep27 protein,−1.00
same,"differential expression, Clone ID 1684742, HCT116 t/Aza (5d)",HCT116 cells; SEQ ID NO:18 cDNA FLJ20222,−0.89
same,"differential expression, Clone ID 2825816, HCT116 t/Aza (5d)",HCT116 cells; SEQ ID NO:19 KIAA0412,−0.89
same,"differential expression, Clone ID 2440943, HCT116 t/Aza (5d)",HCT116 cells; SEQ ID NO:21 Incyte Unique,−1.00
same,"differential expression, Clone ID 1294339, HCT116 t/Aza (5d)",HCT116 cells; SEQ ID NO:22 PDGF-B,−0.89
same,"differential expression, Clone ID 5104741, HCT116 t/Aza (5d)",HCT116 cells; SEQ ID NO:23 cDNA FLJ10570,−1.23
same,"differential expression, Clone ID 1855389, HCT116 t/Aza (5d)",HCT116 cells; SEQ ID NO:24 pTR7 repetitive sequence,−1.51
same,"differential expression, Clone ID 5207613, HCT116 t/Aza (5d)",HCT116 cells; SEQ ID NO:25 chromosome 21 segment HS21C049,−1.67
same,"differential expression, Clone ID 3207902, HCT116 t/Aza (5d)",HCT116 cells; SEQ ID NO:26 hypothetical protein,−0.89
same,"differential expression, Clone ID 4999769, HCT116 t/Aza (5d)",HCT116 cells; SEQ ID NO:27 ZNFpT17,−1.09
same,"differential expression, Clone ID 408886, HCT116 t/Aza (5d)",HCT116 cells; SEQ ID NO:28 transketolase,−2.32
same,"differential expression, Clone ID 4764233, HCT116 t/Aza (5d)",HCT116 cells; SEQ ID NO:30 GAGE-8,−1.79
same,"differential expression, Clone ID 2511379, HCT116 t/Aza (5d)",HCT116 cells; SEQ ID NO:31 GAGE-7B,−1.34
same,"differential expression, Clone ID 2471817, HCT116 t/Aza (5d)",HCT116 cells; SEQ ID NO:33 cDNA clone YU62C03,−0.89
same,"differential expression, Clone ID 3333736, HCT116 t/Aza (5d)",HCT116 cells; SEQ ID NO:34 MAGE-11 antigen,−1.38
same,"differential expression, Clone ID 1304365, HCT116 t/Aza (5d)",HCT116 cells; SEQ ID NO:35 GAGE-8,−1.78
same,"differential expression, Clone ID 2657056, HCT116 t/Aza (5d)","HCT116 cells; SEQ ID NO:37, 38 MAGE-4b antigen",−1.58
same,"differential expression, Clone ID 2507719, HCT116 t/Aza (5d)",HCT116 cells; SEQ ID NO:39 MAGE-9 antigen,−1.70
same,"differential expression, Clone ID 4688, HCT116 t/Aza (5d)",HCT116 cells; SEQ ID NO:41 MAGE-1,−1.14
same,"differential expression, Clone ID 2068708, HCT116 t/Aza (5d)",HCT116 cells; SEQ ID NO:42 HM74,−0.46
same,"differential expression, Clone ID 23770, HCT116 t/Aza (5d)",HCT116 cells; SEQ ID NO:43 1-8D,−0.72
same,"differential expression, Clone ID 1616783, HCT116 t/Aza (5d)",HCT116 cells; SEQ ID NO:45 Incyte Unique,−0.80
same,"differential expression, Clone ID 820942, HCT116 t/Aza (5d)",HCT116 cells; SEQ ID NO:46 cDNA FLJ20120,−0.26
same,"differential expression, Clone ID 891322, HCT116 t/Aza (5d)",HCT116 cells; SEQ ID NO:47 Incyte Unique,−0.58
same,"differential expression, Clone ID 2755836, HCT116 t/Aza (5d)",HCT116 cells; SEQ ID NO:48 U5 A RNA,−0.58
same,"differential expression, Clone ID 1227521, HCT116 t/Aza (5d)",HCT116 cells; SEQ ID NO:49 phospholipid scramblase 1,−0.58
same,"differential expression, Clone ID 2200842, HCT116 t/Aza (5d)",HCT116 cells; SEQ ID NO:50 retinoid inducible gene 1,0.00
same,"differential expression, Clone ID 2238363, HCT116 t/Aza (5d)",HCT116 cells; SEQ ID NO:51 interferon induced,−0.24
same,"differential expression, Clone ID 1495382, HCT116 t/Aza (5d)",HCT116 cells; SEQ ID NO:53 TRAIL,−0.26
same,"differential expression, Clone ID 1998269, HCT116 t/Aza (5d)",HCT116 cells; SEQ ID NO:55 rhoB,−0.63
same,"differential expression, Clone ID 1919287, HCT116 t/Aza (5d)",HCT116 cells; SEQ ID NO:56 hepatitis C-associated microtubular aggregate,0.00
same,"differential expression, Clone ID 2637446, HCT116 t/Aza (5d)",HCT116 cells; SEQ ID NO:57 HE4 protein,−0.29
same,"differential expression, Clone ID 1962141, HCT116 t/Aza (5d)",HCT116 cells; SEQ ID NO:58 Similar to keratin 7,−0.92
same,"differential expression, Clone ID 4933404, HCT116 t/Aza (5d)",HCT116 cells; SEQ ID NO:60 Incyte Unique,−2.08
same,"differential expression, Clone ID 2150288, HCT116 t/Aza (5d)",HCT116 cells; SEQ ID NO:61 Keratin 8,−0.92
same,"differential expression, Clone ID 2697455, HCT116 t/Aza (5d)",HCT116 cells; SEQ ID NO:61 Keratin 8,−1.14
same,growth of HT-29 cells in culture,HT-29 cells [1],inhibits growth
same,expression of genes related to interferon (IFN) signaling,HT-29 cells [2],leads to specific expression of several genes related to interferon (IFN) signaling
same,polyp formation,MIN mouse,reduced polyp formation
